Measured values: patent US20230086703A1, “N-(4-(5-chloropyridin-3-yl)phenyl)-2-(2-(cyclopropanesulfonamido)pyrimidin-4-yl) butanamide derivatives and related compounds as human CTPS1 inhibitors for the treatment of proliferative diseases” (Step Pharma S.A.S., priority 2019, published 2023)

Target: T1, human CTPS1 (Homo sapiens, UniProt P17812)
T1 construct: FLAG (with GG linker); His8 (with GG linker); purchased Proteros biostructures GmbH
T1 sequence (P17812 1-591): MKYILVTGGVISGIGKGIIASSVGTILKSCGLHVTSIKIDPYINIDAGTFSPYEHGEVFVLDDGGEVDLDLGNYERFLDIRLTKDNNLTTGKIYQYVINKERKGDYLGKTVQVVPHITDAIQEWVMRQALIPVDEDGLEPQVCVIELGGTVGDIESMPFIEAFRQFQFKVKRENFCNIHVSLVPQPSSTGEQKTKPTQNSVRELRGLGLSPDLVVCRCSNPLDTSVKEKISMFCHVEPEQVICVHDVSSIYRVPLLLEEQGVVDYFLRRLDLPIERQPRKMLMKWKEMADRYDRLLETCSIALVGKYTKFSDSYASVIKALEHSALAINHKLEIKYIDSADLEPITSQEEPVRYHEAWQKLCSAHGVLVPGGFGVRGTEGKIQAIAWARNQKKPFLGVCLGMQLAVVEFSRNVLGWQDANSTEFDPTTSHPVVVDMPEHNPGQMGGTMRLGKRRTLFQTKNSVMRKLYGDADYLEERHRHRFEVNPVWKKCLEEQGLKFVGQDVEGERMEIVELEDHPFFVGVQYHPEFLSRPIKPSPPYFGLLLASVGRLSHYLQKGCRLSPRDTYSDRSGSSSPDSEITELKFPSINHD
Assay: Human CTPS1 enzyme inhibition, ADP-Glo Max assay
Type: biochemical
Conditions: ADP-Glo Max assay; Table 10; read-out: Human CTPS1 Enzyme Inhibition, IC50 grouped by potency range (CTPS1)
In short: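 Enzyme preincubated with compound for 10 min at 25 °C in 50 mM Tris pH 8.0, 10 mM MgCl2, 0.01% Tween-20, 2 mM L-cysteine. ATP-to-ADP conversion detected by ADP-Glo Max luminescence after 60 min depletion and 60 min development steps. Percentage inhibition calculated per concentration.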

Work on `CCOc1cncc(-c2ccc(NC(=O)C(C)(C)c3csc(NS(=O)(=O)C(C)C)n3)cc2)n1` [T298, N-(4-(6-ethoxypyrazin-2-yl)phenyl)-2-methyl-2-(2-((1-methylethyl)sulfonamido)thiazol-4-yl)propanamide] yielded an IC50 of under 0.1 µM.
For `CC(C)(C(=O)Nc1ccc(-c2cccnc2)cc1)c1csc(NS(=O)(=O)C2(C)CC2)n1` [T299, 2-methyl-2-(2-((1-methylcyclopropane)-1-sulfonamido)thiazol-4-yl)-N-(4-(pyridin-3-yl)phenyl)propanamide], the IC50 was 0.1 to 1 µM.
`CC(C)(C(=O)Nc1ccc(-c2cncc(Cl)c2)cc1)c1csc(NS(=O)(=O)C2(C)CC2)n1` [T300, N-(4-(5-chloropyridin-3-yl)phenyl)-2-methyl-2-(2-((1-methylcyclopropane)-1-sulfonamido)thiazol-4-yl)propanamide] showed an IC50 of 0.1 to 1 µM.
Work on `CCOc1cncc(-c2ccc(NC(=O)C(C)(C)c3csc(NS(=O)(=O)C4(C)CC4)n3)cc2)n1` [T301, N-(4-(6-ethoxypyrazin-2-yl)phenyl)-2-methyl-2-(2-((1-methylcyclopropane)-1-sulfonamido)thiazol-4-yl)propanamide] yielded an IC50 of under 0.1 µM.
In the case of `CC(C)(C(=O)Nc1ccc(-c2cncc(C(F)(F)F)n2)cc1)c1csc(NS(=O)(=O)C2(C)CC2)n1` [T302, 2-methyl-2-(2-((1-methylcyclopropane)-1-sulfonamido)thiazol-4-yl)-N-(4-(6-(trifluoromethyl)pyrazin-2-yl)phenyl)propanamide], the IC50 is reported as 0.1 to 1 µM.
For `CC(C)(C(=O)Nc1ccc(-c2cccnc2)cc1)c1csc(NS(=O)(=O)C(C)(C)C)n1` [T303, 2-(2-((1,1-dimethylethyl)sulfonamido)thiazol-4-yl)-2-methyl-N-(4-(pyridin-3-yl)phenyl)propanamide], the IC50 was 1 to 10 µM.
`CCOc1cncc(-c2ccc(NC(=O)C(C)(C)c3csc(NS(=O)(=O)C(C)(C)C)n3)cc2)n1` [T304, 2-(2-((1,1-dimethylethyl)sulfonamido)thiazol-4-yl)-N-(4-(6-ethoxypyrazin-2-yl)phenyl)-2-methylpropanamide] was tested, and the IC50 was 0.1 to 1 µM.
Compound `CC(C)(C(=O)Nc1ccc(-c2cncc(C(F)(F)F)n2)cc1)c1csc(NS(=O)(=O)C(C)(C)C)n1` [T305, 2-(2-((1,1-dimethylethyl)sulfonamido)thiazol-4-yl)-2-methyl-N-(4-(6-(trifluoromethyl)pyrazin-2-yl)phenyl)propanamide] has an IC50 of 0.1 to 1 µM.
In the case of `CC(C)(C(=O)Nc1ccc(-c2cccnc2)cc1)c1csc(NS(=O)(=O)C2CCC2)n1` [T306, 2-(2-(cyclobutanesulfonamido)thiazol-4-yl)-2-methyl-N-(4-(pyridin-3-yl)phenyl)propanamide], the IC50 is reported as 0.1 to 1 µM.
In the case of `CCOc1cncc(-c2ccc(NC(=O)C(C)(C)c3csc(NS(=O)(=O)C4CCC4)n3)cc2)n1` [T307, 2-(2-(cyclobutanesulfonamido)thiazol-4-yl)-N-(4-(6-ethoxypyrazin-2-yl)phenyl)-2-methylpropanamide], the IC50 is reported as under 0.1 µM.
`CC(C)(C(=O)Nc1ccc(-c2cncc(C(F)(F)F)n2)cc1)c1csc(NS(=O)(=O)C2CCC2)n1` [T308, 2-(2-(cyclobutanesulfonamido)thiazol-4-yl)-2-methyl-N-(4-(6-(trifluoromethyl)pyrazin-2-yl)phenyl)propanamide] was tested, and the IC50 was 0.1 to 1 µM.
`CN(C(=O)C(C)(C)c1csc(NS(=O)(=O)C2CC2)n1)c1ccc(-c2cncc(C#N)c2)cc1` [T309, N-(4-(5-cyanopyridin-3-yl)phenyl)-2-(2-(cyclopropanesulfonamido)thiazol-4-yl)-N,2-dimethylpropanamide] gave an IC50 of 1 to 10 µM.
For `CN(C(=O)C(C)(C)c1csc(NS(=O)(=O)C2CC2)n1)c1ccc(-c2cncc(C(F)(F)F)n2)cc1` [T310, 2-(2-(cyclopropanesulfonamido)thiazol-4-yl)-N,2-dimethyl-N-(4-(6-(trifluoromethyl)pyrazin-2-yl)phenyl)propanamide], the IC50 was 1 to 10 µM.
`CC(C)CS(=O)(=O)Nc1nc(C(C)(C)C(=O)Nc2ccc(-c3cccnc3)cc2)cs1` [T311, 2-methyl-2-(2-((2-methylpropyl)sulfonamido)thiazol-4-yl)-N-(4-(pyridin-3-yl)phenyl)propanamide] gave an IC50 of 1 to 10 µM.
`CCOc1cncc(-c2ccc(NC(=O)C(C)(C)c3csc(NS(=O)(=O)CC(C)C)n3)cc2)n1` [T312, N-(4-(6-ethoxypyrazin-2-yl)phenyl)-2-methyl-2-(2-((2-methylpropyl)sulfonamido)thiazol-4-yl)propanamide] was tested, and the IC50 was 0.1 to 1 µM.
Work on `CC(C)CS(=O)(=O)Nc1nc(C(C)(C)C(=O)Nc2ccc(-c3cncc(C(F)(F)F)n3)cc2)cs1` [T313, 2-methyl-2-(2-((2-methylpropyl)sulfonamido)thiazol-4-yl)-N-(4-(6-(trifluoromethyl)pyrazin-2-yl)phenyl)propanamide] yielded an IC50 of 0.1 to 1 µM.
`CN(C(=O)C(C)(C)c1csc(NS(=O)(=O)C2CC2)n1)c1ccc(-c2cncc(Cl)c2)cc1` [T318, N-(4-(5-chloropyridin-3-yl)phenyl)-2-(2-(cyclopropanesulfonamido)thiazol-4-yl)-N,2-dimethylpropanamide] gave an IC50 of 1 to 10 µM.
Work on `Cc1sc(NS(=O)(=O)C2CC2)nc1C(C)(C)C(=O)Nc1ccc(-c2cccnc2)cc1` [T319, 2-(2-(cyclopropanesulfonamido)-5-methylthiazol-4-yl)-2-methyl-N-(4-(pyridin-3-yl)phenyl)propanamide] yielded an IC50 of 1 to 10 µM.
With `Cc1cc(-c2cncc(C#N)c2)cc(C)c1NC(=O)C(C)(C)c1csc(NS(=O)(=O)C2CC2)n1` [T320, N-(4-(5-cyanopyridin-3-yl)-2,6-dimethylphenyl)-2-(2-(cyclopropanesulfonamido)thiazol-4-yl)-2-methylpropanamide] the IC50 was 0.1 to 1 µM.
`Cc1cc(-c2cncc(Cl)c2)cc(C)c1NC(=O)C(C)(C)c1csc(NS(=O)(=O)C2CC2)n1` [T321, N-(4-(5-chloropyridin-3-yl)-2,6-dimethylphenyl)-2-(2-(cyclopropanesulfonamido)thiazol-4-yl)-2-methylpropanamide] showed an IC50 of under 0.1 µM.
`Cc1cc(NC(=O)C(C)(C)c2csc(NS(=O)(=O)C3CC3)n2)ccc1-c1cncc(C#N)c1` [T322, N-(4-(5-cyanopyridin-3-yl)-3-methylphenyl)-2-(2-(cyclopropanesulfonamido)thiazol-4-yl)-2-methylpropanamide] was tested, and the IC50 was 0.1 to 1 µM.
`CCOc1cncc(-c2ccc(NC(=O)C(N)c3csc(NS(=O)(=O)C4CC4)n3)cc2)n1` (stereo not shown) [T325, 2-Amino-2-(2-(cyclopropanesulfonamido)thiazol-4-yl)-N-(4-(6-ethoxypyrazin-2-yl)phenyl)acetamide] showed an IC50 of under 0.1 µM.
With `CC(C)(C(=O)Nc1ccc(-c2cncc(Cl)c2)c(C(F)(F)F)c1)c1csc(NS(=O)(=O)C2CC2)n1` [T370, N-(4-(5-chloropyridin-3-yl)-3-(trifluoromethyl)phenyl)-2-(2-(cyclopropanesulfonamido)thiazol-4-yl)-2-methylpropanamide] the IC50 was 1 to 10 µM.
Compound `CCOc1cncc(-c2ccc(NC(=O)C(F)(F)c3csc(NS(=O)(=O)C4CC4)n3)nc2)n1` [T422, 2-(2-(cyclopropanesulfonamido)thiazol-4-yl)-N-(5-(6-ethoxypyrazin-2-yl)pyridin-2-yl)-2,2-difluoroacetamide] has an IC50 of 0.1 to 1 µM.
In the case of `CCOc1cncc(-c2ccc(NC(=O)Cc3csc(NS(=O)(=O)C4CC4)n3)c(F)c2)n1` [T423, 2-(2-(cyclopropanesulfonamido)thiazol-4-yl)-N-(4-(6-ethoxypyrazin-2-yl)-2-fluorophenyl)acetamide], the IC50 is reported as under 0.1 µM.
